Patent US7326710B2, “Aralkyl formyl-alkyl piperazine derivatives and their uses as a cerebral nerve protective agent” (Shanghai Institute of Pharmaceutical Industry, priority 2002, dated 2008)

Experiments:
[1] = tested on: global cerebral ischemia in rats; assay: Global cerebral ischemia in rats, bilateral common carotid artery occlusion with exsanguine hypotension; type: in vivo; conditions: reperfusion after 10 min occlusion
Source text: The animal models of the bilateral common carotid artery occlusion with exsanguine hypotension in the rats were used to investigate the effect against global cerebral ischemia.
Methods: The animals were administrated four compounds (IV-2, 23, 34, 36) orally for 3 days before the experiment. […]

[2] = tested on: primary culture of rat cerebral cortical neuronal cells; assay: Effect of NMDA on neurons, LDH activity in supernatant; type: cell-based; conditions: n = 12
Source text: Primary culture of rat cerebral cortical neuronal cells were used. […] This is further evidence that IV-23 is a new NMDA receptor antagonist, and has anti-cerebral ischemic injury functions as well.

[3] = tested on: global cerebral ischemia-reperfusion injury in rats; assay: Global cerebral ischemia-reperfusion in rats, four arteries reversible occlusion; type: in vivo; conditions: Nimodipine 1 mg/kg
Source text: The effect of IV-23 on cerebral ischemia-reperfusion in rats was studied using four arteries reversible occlusion by measuring the recovering time of the electroencephalogram and the righting reflex (a short time indicates a strong effect).

[4] = tested on: focal cerebral ischemia in rats; assay: Focal cerebral infarction, electrical coagulation to occlude MCA; type: in vivo; parameters: The neurological deficit score After the operation / The neurological deficit score 24 h: scale not given here; conditions: Nimodipine, dose not given
Experimental: a. The Focal Cerebral-Infarction of Using Electrical Coagulation to Occlude MCA:
For the 5 mg/kg group, the percentage of the rat's infarct size was decreased, but the difference is not significant (p=0.098). The effect is not significant for the Nimodipine mg/kg.

[5] = tested on: focal cerebral ischemia in rats; assay: Focal cerebral ischemia in rats by occlusion of middle cerebral artery (MCA); type: in vivo; conditions: 20 mg/kg p.o.
Experimental: The focal ischemia rat model by occlusion of middle cerebral artery (MCA) was used to determine the protective effects of the compounds on focal cerebral ischemia. The infarct size after focal cerebral ischemia and the weight percentage of cerebral hemisphere were calculated to evaluate the compounds' effects on focal cerebral ischemia.

SMILES: O=C(CN1CCN(CC(O)c2ccccc2)CC1)c1ccccc1 (stereo not shown) [IV-36, N^1-phenacyl-N^4-(2-phenylethyl-2-ol) piperazine]
- Recovery time of EEG ([1]; 20 mg/kg orally for 3 days): 20.10 min

SMILES: CN[C@H](CC(=O)O)C(=O)O [NMDA, N-methyl-D-aspartate]
- LDH activities (U/g protein) (mean ± SEM) ([2]; NMDA 0.1 mmol/L): 1.51 ± 0.25 U/g protein
- LDH activities (U/g protein) (mean ± SEM) ([2]; NMDA 0.5 mmol/L): 1.63 ± 0.19 U/g protein
- LDH activities (U/g protein) (mean ± SEM) ([2]; NMDA 1 mmol/L): 1.74 ± 0.17 U/g protein
- LDH activities (U/g protein) (mean ± SEM) ([2]; NMDA 2 mmol/L): 2.38 ± 0.31 U/g protein

SMILES: COCCOC(=O)C1=C(C)NC(C)=C(C(=O)OC(C)C)C1c1cccc([N+](=O)[O-])c1 (stereo not shown) [Nimodipine, reference compound]
- Time for electroencephalogram to disappear(S) [3]: 396.0 ± 559.8^Δ S
- Time for electroencephalogram to recover (S) [3]: 3264.0 ± 336.4^Δ S
- Time for righting reflex to recover (S) [3]: 1284.0 ± 1319.8^Δ S
- The neurological deficit score 24 h [4]: 8.3 ± 2.0
- The neurological deficit score After the operation [4]: 9.7 ± 0.5
- The percentage of infarction (%) [4]: 20.5 ± 6.8 %
- The weight of infarct area [4]: 0.15 ± 0.05 g
- Recovery time of EEG ([1]; Nimodipine 1 mg/kg positive control): 13.49 ± 5.55 min
- Infarct volume [5]: 0.188 ± 0.013 g
- Neurological deficit After operation [5]: 9.3 ± 1.7
- Neurological deficit 24 h ([5]; 24 h after operation): 9.0 ± 4.1
